Source: EP0787493A1, “Tetrahydroisoquinoline derivatives” (priority 1996, dated 1997)
Read-outs that look alike come from different tables or passages of the source.

Columns and labels:
[1] = target: NMDA receptors; experiment: 3H-MK801 (Dizocilpine) binding in vitro; conditions: rat whole brain membranes, 5nM 3H-MK-801, glutamate, glycine and spermidine present
Description: 3H-MK801 (Dizocilpine) binding in vitro
The whole brain from 150-200g male rats, without cerebellum and without medulla oblongata was dissected on ice. The tissue was then homogenized with an Ultra-Turrax maximum speed during 30 seconds at 4°C in 50 volumes of cold Tris HCI 50mM, EDTA disodium 10mM, pH=7.4 buffer (wet weight/v). The homogenate was centrifuged at 48'000 x g (20'000 rpm, SS34, Sorvall RC5C) for 10 minutes. The pellet was rehomogenized with the same volume of buffer and the homogenate incubated at 37°C for 10 minutes. After centrifugation as above, the pellet was rehomogenized with the same volume of buffer and frozen at -80°C in 35 ml fractions for at least 16 hours and not more than 2 weeks.
For the binding experiment, the homogenate was centrifuged as above and the pellet was washed 3 times by homogenization in 25 volumes of cold Tris HCl 5mM, pH=7.4 buffer (Ultra-Turrax, maximum speed, 30 seconds) and centrifugation as above. The final pellet was rehomogenized in 25 volumes of buffer (original wet weight) and used as such in the assay. The final concentration of membrane in the assay was 20mg/ml (wet weight).
The incubation was performed in the presence of 1nM glutamate, glycine and spermidine. MK-801, (+)-[3-3H(N)], NEN (NET-972) 20Ci/mmol, was used at 5nM final concentration. Non specific binding was determined in presence of […] TCP. After 2 hours of incubation at room temperature, the suspension was filtered (Whatmann GF/B, soaked in 0.1% polyethylenimine for 2 hours) and washed 5 times with 3 ml of cold Tris HCl 5mM, pH=7.4 buffer. The air-dried filters were counted with 10ml of Ultima-gold (Packard) in a Tri-Carb 2500 TR scintillation counter after agitation.
The DPM were transformed in % of specific binding and these values were treated by a non linear regression calculation program (BINDING, H. Affolter, Switzerland) which provided the IC50 values for the low and high affinity binding sites (= concentrations producing half maximal inhibition at the respective sites). Each experiment was repeated at least three times and the final IC50 values were calculated as the mean +/-standard deviation of the individual experiments.
Reference: R.W. Ransom and N.L. Stec. Journal of Neurochemistry 51, 830-836, 1988.

[2] = target: T1, NMDAR1C - NMDAR2A (Rattus norvegicus, UniProt P35439+Q00959); experiment: Electrophysiology on recombinant NMDA receptors expressed in oocytes; format: cell-based; conditions: Xenopus laevis oocytes, voltage clamp -80 mV; 70 µM Asp plus 2.5 µM Gly; read-out: Electrophysiology/IC50 (µM) oocytes NMDAR 1C & 2A
T1 construct: expressed in transfected cells; host or cells: Xenopus laevis oocytes injected with in vitro transcribed mRNA (1:1 mixture)
Excerpt: (§1) Electrophysiology on recombinant NMDA receptors.
(§2) cDNA clones coding for the subunits NMDAR1C and NMDAR2A of the NMDA receptor (see Hollmann and Heinemann, 1994, Annu. Rev. Neurosci. 17: 31 for nomenclature of NMDA receptor subunits) were isolated from a rat brain λgt11 cDNA library as published elsewhere (Sigel et al., 1994, J. Biol. Chem. 269:8204). The clone for the subunit NMDAR2B of the rat brain NMDA receptor was obtained from S.Nakanishi (Kyoto, Japan). The cDNAs were transcribed, capped and poly(A^+)-tailed as described previously (Malherbe et al., 1990, Mol. Brain Res. 8: 199). Oocytes of South African frogs (Xenopus laevis) were used for expressing either a combination of the NMDAR1C and NMDAR2A subunits or the NMDAR1C and NMDAR2B subunits. Approximately 3 fmol of a 1:1 mixture of the respective mRNA species were injected into every oocyte. Four to five days later the ion current through the NMDA receptor channels was measured in voltage clamp experiments (see Methfessel et al., 1986, Pflügers Arch. 407: 577 for the methods of oocyte expression and voltage-clamping). The membrane potential was clamped to -80 mV and the receptors were activated by applying a modified Ringer's solution containing the agonists L-asparatate (Asp) and glycine (Gly). Different agonist concentrations were chosen for either subunit combination to account for the different agonist sensitivities of the two types of receptors (70 µM Asp plus 2.5 µM Gly for NMDAR1C - NMDAR2A and 15 µM Asp plus 0.2 µM Gly for NMDAR1C - NMDAR2B). The agonists were applied for 15 s intervals once every 2.5 min by rapid superfusion of the oocyte. After a series of initial control stimuli increasing concentrations of the antagonist to be tested were added to both, the basal Ringer's and the agonist containing solution. For the data analysis the amplitude (y) of the agonist-induced current was plotted versus the concentration (x) of the antagonist and the logistic function y =A/[1 +(x/IC50)^H ] [formula] was fitted to the data to estimate the 50 % inhibitory concentration (IC50). Three to six oocytes were tested for every antagonist and if possible, at least 3 concentrations embracing the IC50 were applied to every oocyte. […] In two other cases a concentration of 0.1 µM produced a slowly increasing block which exceeded 50% after 30 min. […] Figures for the IC50 in all other cases are arithmetic mean values of individual IC50s determined by the logistic curve fits.

[3] = target: T2, NMDAR1C - NMDAR2B (Rattus norvegicus, UniProt P35439+Q00960); experiment: as above; format: cell-based; conditions: Xenopus laevis oocytes, voltage clamp -80 mV; 15 µM Asp plus 0.2 µM Gly; read-out: Electrophysiology/IC50 (µM) oocytes NMDAR 1C & 2B
T2 construct: expressed in transfected cells; host or cells: Xenopus laevis oocytes injected with in vitro transcribed mRNA (1:1 mixture)
Excerpt: as §1, §2

[4] = high affinity binding site, read-out: 3H-MK 801 / IC50 (µM) high
[5] = low affinity binding site, read-out: 3H-MK 801 / IC50 (µM) low

T2 sequence (Q00960 27-1482, other chains not shown): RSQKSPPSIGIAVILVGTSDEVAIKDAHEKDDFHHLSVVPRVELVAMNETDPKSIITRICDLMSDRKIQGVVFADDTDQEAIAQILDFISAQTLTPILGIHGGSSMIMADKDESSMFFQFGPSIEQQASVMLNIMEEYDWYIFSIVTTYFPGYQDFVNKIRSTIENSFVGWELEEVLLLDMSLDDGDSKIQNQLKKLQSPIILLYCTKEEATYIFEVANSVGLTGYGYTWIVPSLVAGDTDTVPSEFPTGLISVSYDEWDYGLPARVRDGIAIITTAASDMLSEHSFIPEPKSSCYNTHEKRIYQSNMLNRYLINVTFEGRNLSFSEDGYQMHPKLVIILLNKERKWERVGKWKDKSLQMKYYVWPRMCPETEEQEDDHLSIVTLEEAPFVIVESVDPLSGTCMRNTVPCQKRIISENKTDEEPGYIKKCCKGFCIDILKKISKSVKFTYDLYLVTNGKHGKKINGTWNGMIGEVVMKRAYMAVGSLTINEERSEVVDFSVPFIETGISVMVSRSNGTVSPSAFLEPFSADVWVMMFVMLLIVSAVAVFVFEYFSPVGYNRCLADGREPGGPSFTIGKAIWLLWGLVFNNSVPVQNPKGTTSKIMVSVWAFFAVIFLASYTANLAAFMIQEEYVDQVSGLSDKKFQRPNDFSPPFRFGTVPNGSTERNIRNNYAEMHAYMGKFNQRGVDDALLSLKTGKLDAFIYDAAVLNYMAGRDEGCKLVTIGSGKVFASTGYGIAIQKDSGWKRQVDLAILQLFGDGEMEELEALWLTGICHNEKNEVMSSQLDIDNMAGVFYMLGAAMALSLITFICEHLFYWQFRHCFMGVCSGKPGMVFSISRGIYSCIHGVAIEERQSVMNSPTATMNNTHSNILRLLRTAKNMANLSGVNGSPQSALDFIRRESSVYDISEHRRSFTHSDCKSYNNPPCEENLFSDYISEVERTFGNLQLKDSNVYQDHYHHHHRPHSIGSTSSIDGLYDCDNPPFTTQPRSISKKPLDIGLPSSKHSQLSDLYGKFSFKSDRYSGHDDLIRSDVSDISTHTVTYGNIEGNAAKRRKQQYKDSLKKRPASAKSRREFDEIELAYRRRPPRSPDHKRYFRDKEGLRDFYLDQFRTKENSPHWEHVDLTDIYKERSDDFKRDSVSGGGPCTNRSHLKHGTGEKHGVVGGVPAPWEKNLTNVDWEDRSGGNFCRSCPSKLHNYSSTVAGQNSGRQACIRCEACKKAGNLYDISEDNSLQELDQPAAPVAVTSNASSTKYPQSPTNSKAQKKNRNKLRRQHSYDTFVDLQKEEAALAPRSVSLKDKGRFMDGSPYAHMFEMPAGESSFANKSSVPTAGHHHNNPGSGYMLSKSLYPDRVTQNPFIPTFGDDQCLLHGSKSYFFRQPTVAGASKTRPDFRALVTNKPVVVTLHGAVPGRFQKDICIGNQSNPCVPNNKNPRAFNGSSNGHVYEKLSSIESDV
T1 sequence (Q00959 23-1464, other chains not shown): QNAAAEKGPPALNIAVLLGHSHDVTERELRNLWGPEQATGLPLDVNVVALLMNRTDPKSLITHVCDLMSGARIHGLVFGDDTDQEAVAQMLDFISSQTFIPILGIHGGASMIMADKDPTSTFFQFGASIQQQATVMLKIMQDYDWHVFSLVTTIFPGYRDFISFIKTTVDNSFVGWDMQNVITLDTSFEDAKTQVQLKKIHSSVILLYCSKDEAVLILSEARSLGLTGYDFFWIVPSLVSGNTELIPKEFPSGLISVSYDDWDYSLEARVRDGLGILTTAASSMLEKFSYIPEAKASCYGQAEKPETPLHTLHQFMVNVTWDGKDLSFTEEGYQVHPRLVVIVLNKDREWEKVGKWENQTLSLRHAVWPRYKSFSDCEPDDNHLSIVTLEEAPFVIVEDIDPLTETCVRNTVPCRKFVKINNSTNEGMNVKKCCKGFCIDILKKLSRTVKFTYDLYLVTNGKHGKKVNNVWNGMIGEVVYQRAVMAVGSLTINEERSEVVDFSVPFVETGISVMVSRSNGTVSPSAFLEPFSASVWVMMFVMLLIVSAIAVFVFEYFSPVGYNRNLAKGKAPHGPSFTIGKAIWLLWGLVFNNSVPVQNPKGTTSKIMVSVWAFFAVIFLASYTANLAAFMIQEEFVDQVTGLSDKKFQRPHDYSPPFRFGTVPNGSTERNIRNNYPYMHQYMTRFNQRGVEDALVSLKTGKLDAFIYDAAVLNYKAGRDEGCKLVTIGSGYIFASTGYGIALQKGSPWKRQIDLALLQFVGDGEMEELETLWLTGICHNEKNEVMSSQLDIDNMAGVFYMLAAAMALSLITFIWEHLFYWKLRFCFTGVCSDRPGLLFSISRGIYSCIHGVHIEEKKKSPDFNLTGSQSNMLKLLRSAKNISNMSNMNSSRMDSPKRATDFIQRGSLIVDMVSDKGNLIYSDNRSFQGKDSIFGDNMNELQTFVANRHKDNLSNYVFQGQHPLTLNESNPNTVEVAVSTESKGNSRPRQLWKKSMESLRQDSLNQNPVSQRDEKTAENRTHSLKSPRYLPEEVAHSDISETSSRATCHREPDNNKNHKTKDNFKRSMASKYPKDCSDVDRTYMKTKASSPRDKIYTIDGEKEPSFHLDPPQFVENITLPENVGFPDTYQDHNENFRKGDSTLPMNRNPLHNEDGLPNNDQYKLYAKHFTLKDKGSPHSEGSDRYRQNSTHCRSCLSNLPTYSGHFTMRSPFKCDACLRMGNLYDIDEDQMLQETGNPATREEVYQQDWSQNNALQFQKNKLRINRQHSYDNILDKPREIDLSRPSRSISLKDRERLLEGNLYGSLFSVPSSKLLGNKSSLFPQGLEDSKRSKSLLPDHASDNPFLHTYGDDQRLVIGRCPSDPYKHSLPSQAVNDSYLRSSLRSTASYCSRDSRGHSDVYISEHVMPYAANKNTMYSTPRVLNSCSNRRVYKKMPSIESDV

Row | IC50 [1, 4] | IC50 [1, 5] | IC50 [2] | IC50 [3] | SMILES
1 | 2.9 µM | 110 µM | – | – | COc1cc2c(cc1OC)C(CC(O)c1ccc(Cl)cc1)N(C)CC2 (single isomer, unassigned) [V]
2 | 1.6 µM | 101 µM | – | – | COc1cc2c(cc1OC)C(CCc1ccc([N+](=O)[O-])cc1)N(C)CC2 (stereo not shown) [O]
3 | 0.4 µM | 315 µM | > 30 µM | < 0.1 µM | COc1cc2c(cc1OC)C(CCc1ccc(Cl)cc1)N(C)C1CCCCC21 (stereo not shown) [F, 6-[2-(4-Chloro-phenyl)-ethyl]-8,9-dimethoxy-5-methyl-1,2,3,4,4a,5,6,10b-octahydro-phenanthridine]
4 | 4.62 µM | 185 µM | – | – | COc1cc2c(cc1OC)C(CCc1ccc(Cl)c(Cl)c1)N(C)CC2 (stereo not shown) [AA]
5 | 2.71 µM | 87 µM | – | – | COc1cc2c(cc1OC)C(CCc1ccc([N+](=O)[O-])cc1)N(C)CC2 (stereo not shown) [U]
6 | 3.6 µM | 129 µM | – | – | COc1ccc2c(c1OC)CCN(C)C2CCc1ccc(Cl)cc1 (stereo not shown) [W]
7 | 0.29 µM | 116 µM | 19 µM | 0.28 µM | CN1CCc2cc(O)c(O)cc2C1CCc1ccc(Cl)cc1 (stereo not shown) [D, 1-[2-(4-Chloro-phenyl)-ethyl] -2-methyl-1,2,3,4-tetrahydro-isoquinoline-6,7-diol]
8 | 1.76 µM | 161 µM | 21 µM | 1.2 µM | COc1cc2c(cc1OC)C(CC(OC(C)=O)c1ccc(Cl)cc1)N(C)CC2 (stereo not shown) [Q]
9 | 0.59 µM | 146 µM | – | – | COc1ccc(C(O)CC2c3cc(OC)c(OC)cc3CCN2C)cc1 (stereo not shown) [I]
10 | 1.7 µM | 95 µM | – | – | CN1CCc2cc3c(cc2C1CCc1ccc(Cl)cc1)OCO3 (stereo not shown) [P]
11 | 0.34 µM | 129 µM | – | – | COc1cc2c(cc1OC)C(CCc1ccc(C)cc1)N(C)CC2 (stereo not shown) [E, 6,7-Dimethoxy-2-methyl-1-(2-p-tolyl-ethyl)-1,2,3,4-tetrahydroisoquinoline]
12 | 0.91 µM | 613 µM | – | – | COc1cc2c(cc1OC)C(CC(O)c1cc(Cl)c(Cl)cc1Cl)N(C)CC2 (stereo not shown) [K]
13 | 1.37 µM | 198 µM | – | – | COc1cc2c(cc1OC)C(CCc1ccc(Br)cc1)N(C)CC2 (stereo not shown) [L]
14 | 1.59 µM | 370 µM | – | – | COc1cc2c(cc1OC)C(CCc1ccc(C(C)C)cc1)N(C)CC2 (stereo not shown) [N]
15 | 0.5 µM | 589 µM | – | – | COc1cc2c(cc1OC)C1CCCCC1NC2CCc1ccc(Cl)cc1 (stereo not shown) [H, 6-[2-(4-Chloro-phenyl)-ethyl]-8,9,dimethoxy-1,2,3,4,4a,5,6,10b-octahydrophenanthridine]
16 | 2.31 µM | 56 µM | – | – | CN1CCc2cc(O)c(O)cc2C1CCc1ccc(Cl)c(Cl)c1 (stereo not shown) [T]
17 | 3.87 µM | 2230 µM | – | – | Cc1cc2c(cc1C)C(CCc1ccc(Cl)cc1)N(C)C(C)C2 (stereo not shown) [X]
18 | 0.46 µM | 87 µM | – | – | COc1cc2c(cc1OC)C(CC(O)c1ccc([N+](=O)[O-])cc1)N(C)CC2 (stereo not shown) [G, 2-(6,7-Dimethoxy-2-methyl-1,2,3,4-tetrahydroisoquinolin-1-yl)-1-(4-nitrophenyl)-ethanol]
19 | 0.12 µM | 191 µM | > 20 µM | 0.043 µM | COc1cc2c(cc1OC)C(CC(O)c1ccc(Cl)cc1)N(C)CC2 (single isomer, unassigned) [C, 1-(4-Chloro-phenyl)-2-(6,7-dimethoxy-2-methyl-1,2,3,4-tetrahydroisoquinolin-1-yl)-ethanol]
20 | 2.1 µM | 147 µM | – | – | COc1cc2c(cc1OC)C(CCc1ccccc1)N(C)CC2 (stereo not shown) [R]
21 | 1.39 µM | 95 µM | – | – | COc1ccc(CCC2c3cc(OC)c(OC)cc3CCN2C)cc1 (stereo not shown) [M]
22 | 0.04 µM | 223 µM | > 100 µM | ≤ 0.1 µM | COc1cc2c(cc1OC)C(CC(O)c1ccc(C)cc1)N(C)CC2 (stereo not shown) [A, 2-(6,7-Dimethoxy-2-methyl-1,2,3,4-tetrahydroisoquinolin-1-yl)-1-p-tolyl-ethanol]

Row | SMILES | IC50 [1, 4] | IC50 [1, 5] | IC50 [2] | IC50 [3]
23 | CCC(=O)OC(CC1c2cc(OC)c(OC)cc2CCN1C)c1ccc(Cl)cc1 (stereo not shown) [S] | 2.18 µM | 123 µM | – | –
24 | COc1cc2c(cc1O)C(CCc1ccc(Cl)cc1)N(C)CC2 (stereo not shown) [B, 1-[2-(4-Chloro-phenyl)-ethyl]-6-methoxy-2-methyl-1,2,3,4-tetrahydroisoquinolin-7-ol] | 0.09 µM | 54 µM | – | –
